pIC50: −log10 of the molar value.
Tests used:
Myt1-KD = Myt1-KD (Homo sapiens (Human), UniProt Q99640); assay: Thermal Shift Assay, compound binding to Myt1-KD; settings: 2 μM protein, 100 μM compound, Tm of compound minus Tm of DMSO
Procedure: The degree of compound binding to Myt1-KD was tested using a Thermal Shift Assay. Each protein was diluted to a concentration of 2 μM in 50 mM Tris (pH 7.5) with 100 μM of the compound. SYPRO™ Orange dye was added to the solution, and the plate was transferred to a QuantStudio3 Real-Time PCR System (Applied Biosystems by Thermo Fisher Scientific). […] The degree of protein melting in the presence of the compound compared to DMSO was calculated according to the following Equation 1. ΔTm=Tm (Temperature of Example compound)−Tm (Temperature of DMSO) [Equation 1]

human PKMYT1 enzyme = human PKMYT1 enzyme (Homo sapiens (Human), UniProt Q99640); assay: Inhibitory activity against PKMYT1 kinase (ADP-Glo kinase assay); type: biochemical; settings: purified human PKMYT1, ATP, CDK1 substrate, 25° C., 1 hour
Procedure: To evaluate the inhibitory activity of the compounds synthesized according to the above Examples against PKMYT1 kinase, the Example compounds were reacted with purified human PKMYT1 enzyme and assessed using the following method.
The reaction buffer was used as a composition of 200 mM Tris-HCl pH 7.4, 100 mM MgCl2, 0.5 mg/mL BSA, 0.25 mM DTT, and the reactions of all the tests were carried out on the reaction buffer.
The compound was diluted in 12 steps using a serial dilution method from a 10 mM DMSO stock, and the enzyme activity was measured at a final compound concentration of 10˜0.00005645 μM. During the test, the enzyme activity was confirmed using in vitro ADP-Glo™kinase assay (Promega) after reacting with the proper concentration of PKMYT1 enzyme, purified ATP, and enzyme substrate (CDK1) at 25° C. for 1 hour. At a ratio of 2:2:1, an enzyme-active reaction solution, an ADP-Glo reaction solution, and an enzyme-active detection solution were reacted to measure the inhibition of the enzyme's activity with luminescence. Based on the […] of the enzyme activity of the solvent control that was not treated with the compound, the degree of enzyme activity inhibition was calculated according to the treatment concentration of each compound, and the concentration of each compound that inhibits 50% of enzyme activity was determined as IC50 (nM) value and the value was obtained by using GraphPad Prism 8.3.0 (GraphPad software Inc., San Diego) software.

Chain of Myt1-KD (Q99640 110-359): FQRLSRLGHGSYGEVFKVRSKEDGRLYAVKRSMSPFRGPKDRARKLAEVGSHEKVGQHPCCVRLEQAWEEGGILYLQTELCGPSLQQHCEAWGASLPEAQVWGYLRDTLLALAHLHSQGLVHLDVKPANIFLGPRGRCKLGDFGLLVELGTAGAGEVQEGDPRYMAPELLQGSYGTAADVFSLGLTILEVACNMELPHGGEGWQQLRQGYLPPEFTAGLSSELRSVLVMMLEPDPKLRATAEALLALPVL
Chain of human PKMYT1 enzyme (Q99640 whole entry): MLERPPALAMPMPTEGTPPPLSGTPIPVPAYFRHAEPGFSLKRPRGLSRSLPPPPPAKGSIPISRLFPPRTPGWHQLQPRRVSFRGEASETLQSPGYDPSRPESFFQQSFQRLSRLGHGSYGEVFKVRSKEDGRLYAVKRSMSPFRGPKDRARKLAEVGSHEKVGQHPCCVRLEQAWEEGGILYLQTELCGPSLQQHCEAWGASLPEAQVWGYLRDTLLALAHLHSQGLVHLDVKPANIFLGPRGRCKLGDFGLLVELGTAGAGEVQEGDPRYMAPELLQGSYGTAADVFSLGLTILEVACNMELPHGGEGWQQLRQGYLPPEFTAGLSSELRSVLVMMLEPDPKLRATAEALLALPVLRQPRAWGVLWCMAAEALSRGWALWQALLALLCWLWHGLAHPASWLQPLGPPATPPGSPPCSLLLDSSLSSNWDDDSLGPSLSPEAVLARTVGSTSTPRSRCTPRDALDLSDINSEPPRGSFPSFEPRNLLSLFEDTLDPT

Structure (SMILES)	ΔTm at 100 µM (Myt1-KD)	pIC50 (human PKMYT1 enzyme)	ΔTm (° C.) (Myt1-KD)
Cc1ccc(O)c(C)c1-n1c(N)c(C(=O)c2cc3ccccc3[nH]2)c2nccnc21 (atropisomer, axis not shown) [Example 2, (R)-(6-amino-5-(3-hydroxy-2,6-dimethylphenyl)-5H-pyrrolo[2,3-b]pyrazin-7-yl)(1H-indol-2-yl)methanone]	≤ 5 °C	–	–
Cc1ccc(O)c(C)c1-n1c(N)c(C(=O)c2nc3ccccc3[nH]2)c2cccnc21 (atropisomer, axis not shown) [Example 4, (R)-(2-amino-1-(3-hydroxy-2,6-dimethylphenyl)-1H-pyrrolo[2,3-b]pyridin-3-yl)(1H-benzo[d]imidazol-2-yl)methanone]	≤ 5 °C	–	–
Cc1ccc(O)c(C)c1-n1c(N)c(C(=O)c2cc3sccc3[nH]2)c2nccnc21 (atropisomer, axis not shown) [Example 5, (S)-(6-amino-5-(3-hydroxy-2,6-dimethylphenyl)-5H-pyrrolo[2,3-b]pyrazin-7-yl)(4H-thieno[3,2-b]pyrrol-5-yl)methanone]	≥ 5 °C	≥ 6.70	–
Cc1ccc(O)c(C)c1-n1c(N)c(C(=O)c2cc3sccc3[nH]2)c2nccnc21 (atropisomer, axis not shown) [Example 6, (R)-(6-amino-5-(3-hydroxy-2,6-dimethylphenyl)-5H-pyrrolo[2,3-b]pyrazin-7-yl)(4H-thieno[3,2-b]pyrrol-5-yl)methanone]	–	–	B (5 °C ≥ ΔTm (° C.))
Cc1ccc(O)c(C)c1-n1c(N)c(C(=O)c2cc3occc3[nH]2)c2nccnc21 (atropisomer, axis not shown) [Example 7, (S)-(6-amino-5-(3-hydroxy-2,6-dimethylphenyl)-5H-pyrrolo[2,3-b]pyrazin-7-yl)(4H-furo[3,2-b]pyrrol-5-yl)methanone]	≥ 5 °C	≥ 6.70	–
Cc1ccc(O)c(C)c1-n1c(N)c(C(=O)c2cc3occc3[nH]2)c2nccnc21 (atropisomer, axis not shown) [Example 8, (R)-(6-amino-5-(3-hydroxy-2,6-dimethylphenyl)-5H-pyrrolo[2,3-b]pyrazin-7-yl)(4H-furo[3,2-b]pyrrol-5-yl)methanone]	–	–	B (5 °C ≥ ΔTm (° C.))
Cc1ccc(O)c(C)c1-n1c(N)c(C(=O)c2cc3ccccc3[nH]2)c2nc(C)c(C)nc21 (atropisomer, axis not shown) [Example 9, (S)-(6-amino-5-(3-hydroxy-2,6-dimethylphenyl)-2,3-dimethyl-5H-pyrrolo[2,3-b]pyrazin-7-yl)(1H-indol-2-yl)methanone]	≥ 5 °C	6.30 to 6.70	–
Cc1ccc(O)c(C)c1-n1c(N)c(C(=O)c2cc3ccccc3[nH]2)c2nc(C)c(C)nc21 (atropisomer, axis not shown) [Example 10, (R)-(6-amino-5-(3-hydroxy-2,6-dimethylphenyl)-2,3-dimethyl-5H-pyrrolo[2,3-b]pyrazin-7-yl)(1H-indol-2-yl)methanone]	–	–	B (5 °C ≥ ΔTm (° C.))
Cc1cc2c(C(=O)c3nc4ccccc4[nH]3)c(N)n(-c3c(C)ccc(O)c3C)c2nc1C (atropisomer, axis not shown) [Example 11, (S)-(2-amino-1-(3-hydroxy-2,6-dimethylphenyl)-5,6-dimethyl-1H-pyrrolo[2,3-b]pyridin-3-yl)(1H-benzo[d]imidazol-2-yl)methanone]	≥ 5 °C	–	–
Cc1cc2c(C(=O)c3nc4ccccc4[nH]3)c(N)n(-c3c(C)ccc(O)c3C)c2nc1C (atropisomer, axis not shown) [Example 12, (R)-(2-amino-1-(3-hydroxy-2,6-dimethylphenyl)-5,6-dimethyl-1H-pyrrolo[2,3-b]pyridin-3-yl)(1H-benzo[d]imidazol-2-yl)methanone]	–	–	B (5 °C ≥ ΔTm (° C.))
Cc1ccc(O)c(C)c1-n1c(N)c(C(=O)c2cc3cnc(N4CCOCC4)cc3[nH]2)c2nc(C)c(C)nc21 (atropisomer, axis not shown) [Example 15, (S)-(6-amino-5-(3-hydroxy-2,6-dimethylphenyl)-2,3-dimethyl-5H-pyrrolo[2,3-b]pyrazin-7-yl)(6-morpholino-1H-pyrrolo[3,2-c]pyridin-2-yl)methanone]	≥ 5 °C	≥ 6.70	–
Cc1ccc(O)c(C)c1-n1c(N)c(C(=O)c2cc3cnc(N4CCOCC4)cc3[nH]2)c2nc(C)c(C)nc21 (atropisomer, axis not shown) [Example 16, (R)-(6-amino-5-(3-hydroxy-2,6-dimethylphenyl)-2,3-dimethyl-5H-pyrrolo[2,3-b]pyrazin-7-yl)(6-morpholino-1H-pyrrolo[3,2-c]pyridin-2-yl)methanone]	–	–	B (5 °C ≥ ΔTm (° C.))
Cc1ccc(O)c(C)c1-n1c(N)c(C(=O)c2cc3occc3[nH]2)c2nc(C)c(C)nc21 (atropisomer, axis not shown) [Example 17, (S)-(6-amino-5-(3-hydroxy-2,6-dimethylphenyl)-2,3-dimethyl-5H-pyrrolo[2,3-b]pyrazin-7-yl)(4H-furo[3,2-b]pyrrol-5-yl)methanone]	≤ 5 °C	–	–
Cc1ccc(O)c(C)c1-n1c(N)c(C(=O)c2cc3occc3[nH]2)c2nc(C)c(C)nc21 (atropisomer, axis not shown) [Example 18, (R)-(6-amino-5-(3-hydroxy-2,6-dimethylphenyl)-2,3-dimethyl-5H-pyrrolo[2,3-b]pyrazin-7-yl)(4H-furo[3,2-b]pyrrol-5-yl)methanone]	–	≥ 6.70	A (ΔTm (° C.) ≥ 5° C.)
Cc1ccc(O)c(C)c1-n1c(N)c(C(=O)c2cc3cc(CN4CCOCC4)ccc3[nH]2)c2nccnc21 (atropisomer, axis not shown) [Example 19, (S)-(6-amino-5-(3-hydroxy-2,6-dimethylphenyl)-5H-pyrrolo[2,3-b]pyrazin-7-yl)(5-(morpholinomethyl)-1H-indol-2-yl)methanone]	≥ 5 °C	≥ 6.70	–
Cc1ccc(O)c(C)c1-n1c(N)c(C(=O)c2cc3cc(CN4CCOCC4)ccc3[nH]2)c2nccnc21 (atropisomer, axis not shown) [Example 20, (R)-(6-amino-5-(3-hydroxy-2,6-dimethylphenyl)-5H-pyrrolo[2,3-b]pyrazin-7-yl)(5-(morpholinomethyl)-1H-indol-2-yl)methanone]	–	–	B (5 °C ≥ ΔTm (° C.))
Cc1ccc(O)c(C)c1-n1c(N)c(C(=O)c2cc3cc(N4CCN(C)CC4)ccc3[nH]2)c2nccnc21 (atropisomer, axis not shown) [Example 21, (S)-(6-amino-5-(3-hydroxy-2,6-dimethylphenyl)-5H-pyrrolo[2,3-b]pyrazin-7-yl)(5-(4-methylpiperazin-1-yl)-1H-indol-2-yl)methanone]	≤ 5 °C	–	–
Cc1ccc(O)c(C)c1-n1c(N)c(C(=O)c2cc3cc(N4CCN(C)CC4)ccc3[nH]2)c2nccnc21 (atropisomer, axis not shown) [Example 22, (R)-(6-amino-5-(3-hydroxy-2,6-dimethylphenyl)-5H-pyrrolo[2,3-b]pyrazin-7-yl)(5-(4-methylpiperazin-1-yl)-1H-indol-2-yl)methanone]	–	≥ 6.70	A (ΔTm (° C.) ≥ 5° C.)
Cc1ccc(O)c(C)c1-n1c(N)c(C(=O)c2cc3ccncc3[nH]2)c2nccnc21 (atropisomer, axis not shown) [Example 24, (S)-(6-amino-5-(3-hydroxy-2,6-dimethylphenyl)-5H-pyrrolo[2,3-b]pyrazin-7-yl)(1H-pyrrolo[2,3-c]pyridin-2-yl)methanone]	≤ 5 °C	–	–
Cc1ccc(O)c(C)c1-n1c(N)c(C(=O)c2cc3ncccc3[nH]2)c2nccnc21 (atropisomer, axis not shown) [Example 26, (S)-(6-amino-5-(3-hydroxy-2,6-dimethylphenyl)-5H-pyrrolo[2,3-b]pyrazin-7-yl)(1H-pyrrolo[3,2-b]pyridin-2-yl)methanone]	≥ 5 °C	–	–
Cc1ccc(O)c(C)c1-n1c(N)c(C(=O)c2cc3ncccc3[nH]2)c2nccnc21 (atropisomer, axis not shown) [Example 27, (R)-(6-amino-5-(3-hydroxy-2,6-dimethylphenyl)-5H-pyrrolo[2,3-b]pyrazin-7-yl)(1H-pyrrolo[3,2-b]pyridin-2-yl)methanone]	–	–	B (5 °C ≥ ΔTm (° C.))
Cc1ccc(O)c(C)c1-n1c(N)c(C(=O)c2cc3sccc3[nH]2)c2nc(C)c(C)nc21 [Example 14, (R)-(6-amino-5-(3-hydroxy-2,6-dimethylphenyl)-2,3-dimethyl-5H-pyrrolo[2,3-b]pyrazin-7-yl)(4H-thieno[3,2-b]pyrrol-5-yl)methanone]	–	–	B (5 °C ≥ ΔTm (° C.))
Cc1ccc(O)c(C)c1-n1c(N)c(C(=O)c2cc3cc(P(C)(C)=O)ccc3[nH]2)c2nccnc21 [Example 40, (6-amino-5-(3-hydroxy-2,6-dimethylphenyl)-5H-pyrrolo[2,3-b]pyrazin-7-yl)(5-(dimethylphosphoryl)-1H-indol-2-yl)methanone]	≥ 5 °C	–	–

— patent publication US20250092052A1, “HETEROARYL DERIVATIVE COMPOUNDS, AND USES THEREOF” (VORONOI INC., priority 2023, published 2025)
